# Experimental data as given in US5349063A, “Pancreatic imaging agents” (priority 1993, dated 1994).
# Legend:
# [1] = Pancreas uptake and pancreas to liver ratio in Balb/c mice (radioiodine biodistribution); type: in vivo; settings: for P/L (percent dose in pancreas / percent dose in liver) / Pancreas uptake (mean percent administered dose per organ): I-125 label, 20 μg i.v., male Balb/c mice, mean ± standard deviation; for pancreas/liver ratios compared with HIPDM: all time periods from 30 minutes to 24 hours
# Procedure: The pancreatic uptake and pancreas/liver ratio of I-125 ERC 9 (prepared as in Examples 1 and 2) and I-125-HIPDM were compared in mice. Male Balb/c mice were injected via the tail vein with I-125 ERC 9 or I-125 HIPDM (20 μg, 0.01 MBq, in 0.1 ml). At specific time periods from 5 minutes to 24 hours after administration, six mice from each group were killed by CO2 asphyxiation. Blood samples were taken and various organs (including the pancreas and liver) were removed. The radioiodine uptake in various organs was determined by counting in a gamma spectrometric detector. The amount of radioactivity in each organ or tissue was compared to that in a standard of the injected dose. The percent uptake was calculated for each organ of each animal. The pancreas to liver ratio was calculated by dividing the percent uptake in the pancreas by the percent uptake in the liver. The mean uptake in the organs and the mean pancreas/liver ratio was calculated for the animals at each time period.
# The pancreatic uptake and pancreas/liver ratios of I-125 ERC 46 and I-125 HIPDM were compared in Balb/c mice as described in Example 6.
# The pancreas uptake and pancreas/liver ratios of I-125 ERC 90 and I-125 HIPDM were compared in Balb/c mice as described in Example 6.
# The pancreas uptakes and pancreas/liver ratios of I-125 ERC 94 and I-125 HIPDM were compared in Balb/c mice as described in Example 6.
# [2] = cited from earlier work
# [3] = rats and mice; Yamamoto et al.; cited from earlier work
# [4] = cited from earlier work; remark: listed apart in the source
# [5] = Pancreatic imaging in human volunteers (planar and SPECT gamma camera); type: in vivo
# Procedure: Imaging studies have been done in two human volunteers using I-123 ERC 9.
# I-123 ERC 9 (185 MBq, 2 mg), prepared as in Example 2, was injected intravenously into the two volunteers. Using a gamma camera with SPECT (Single Photon Emission Computed Tomography) capability, planar images were obtained at 30 minutes, 1.5 hours, 3 hours and 24 hours after injection. SPECT images were obtained at 3-4 hours after injection.
# Toxicity in mice = type: in vivo, Balb/c mice
# Procedure: It was assumed that the maximum human dose of ERC 9 would be 2 mg per 50 kg (or […]) body weight. Mouse studies were done at a rate of 500 times the maximum human dose on a weight basis. Five Balb/c male and five Balb/c female mice were injected via the tail vein with 0,005 ml per gram body weight of a solution of ERC 9 in water (4 mg per ml) on each of three occasions one day apart. The animals were maintained for 30 days.
# [6] = Human radiation dosimetry of I-123 ERC 9 estimated from tissue distribution in mice (MIRD); set-up: species or system human (from Balb/c mouse data); settings: MIRD calculation from mouse tissue distribution
# Procedure: The human radiation dose from I-123 ERC 9 was estimated from tissue distribution data in mice.
# Male Balb/c mice were injected via the tail vein with I-125 ERC 9 (20 μg, 0.01 MBq, in 0.1 ml). At specific time periods from 5 minutes to 24 hours after administration, six mice were killed by CO2 asphyxiation. Blood samples were taken and various organs were removed. The radioiodine uptake in various organs and tissues was determined by counting in a gamma spectrometric detector. The amount of radioactivity in each organ or tissue was compared to that in a standard of the injected dose. The percent uptake was calculated for each organ of each animal. The mean percent uptake in the organs was calculated for the animals at each time period.
# The mean uptakes for each of the organs and tissues were plotted versus time on semilogarithmic paper. From these plots, the uptake and clearance half times for each of the organs and tissues were calculated.
# Using these values and the MIRD (Society of Nuclear Medicine) method of dosimetry calculations, the human radiation doses from I-123 were calculated.
# [7] = 30 minutes after administration
# [8] = human clinical studies, Yamamoto et al.
# [9] = 4 and 24 hours after administration
# [10] = I-123 ERC 9, 185 MBq, 2 mg i.v.
# [11] = planar and SPECT images, 3-4 hours
# [12] = 500 times maximum human dose, i.v., three occasions one day apart, maintained 30 days
Structure (SMILES),P/L (percent dose in pancreas / percent dose in liver) ([1]; 5 minutes after administration),"P/L (percent dose in pancreas / percent dose in liver) [1, 7]",P/L (percent dose in pancreas / percent dose in liver) ([1]; 1 hour after administration),P/L (percent dose in pancreas / percent dose in liver) ([1]; 4 hours after administration),P/L (percent dose in pancreas / percent dose in liver) ([1]; 24 hours after administration),"pancreas uptake compared with HIPDM [1, 9]",Pancreas uptake (mean percent administered dose per organ) ([1]; 5 minutes after administration),"Pancreas uptake (mean percent administered dose per organ) [1, 7]",Pancreas uptake (mean percent administered dose per organ) ([1]; 1 hour after administration),Pancreas uptake (mean percent administered dose per organ) ([1]; 4 hours after administration),Pancreas uptake (mean percent administered dose per organ) ([1]; 24 hours after administration),pancreas/liver ratios compared with HIPDM [1],pancreas uptake compared with HIPDM ([1]; early time periods),also measured
"Cc1cc([125I])cc(CN(C)CCCN(C)C)c1O [HIPDM, N,N,N'-trimethyl-N'[2-hydroxy-3-methyl-5-iodobenzyl]-1,3-propanediamine, reference compound]",0.21 ± 0.03,0.32 ± 0.04,0.46 ± 0.06,0.95 ± 0.14,1.18 ± 0.47,,,,,,,,,"differentiation between pancreatic and liver retention [2, 8]: difficult; pancreas/liver ratios [2, 8]: not optimal for clinical use; suitability for clinical use ([2]; human): unsatisfactory for clinical use; localisation in the pancreas [3]: some localisation of HIPDM in the pancreas"
"Cc1cc([125I])cc(CN(C)CCCN2CCCC2)c1O [ERC 46, N[3(1-Pyrrolidino)propyl]-N-methyl-2-hydroxy-3-methyl-5-iodobenzylamine]",0.22 ± 0.04,0.54 ± 0.09,0.78 ± 0.20,2.11 ± 0.32,7.47 ± 1.40,higher pancreas uptake than did HIPDM,1.34 ± 0.32 percent administered dose per,4.14 ± 0.68 percent administered dose per,3.74 ± 0.69 percent administered dose per,5.95 ± 0.78 percent administered dose per,4.91 ± 0.43 percent administered dose per,significantly higher,lower,
"CCN(CC)CCCN(C)Cc1cc([125I])cc(C)c1O [ERC 94, N[3(diethylamino)propyl]-N-methyl-2-hydroxy-3-methyl-5-iodobenzylamine]",0.22 ± 0.04,0.61 ± 0.06,0.67 ± 0.19,1.61 ± 0.26,4.03 ± 1.76,,1.56 ± 0.26 percent administered dose per,2.86 ± 0.48 percent administered dose per,3.45 ± 0.90 percent administered dose per,4.65 ± 0.67 percent administered dose per,3.76 ± 1.62 percent administered dose per,significantly higher,,pancreas uptakes compared with HIPDM ([1]; all time periods studied except 24 hours): lower than those of HIPDM
C[75Se]CCC(N)C(=O)O (stereo not shown) [Se-75 selenomethionine],,,,,,,,,,,,,,pancreatic visualisation ([4]; in vivo): inconsistency of pancreatic visualisation; patient radiation dose ([4]; selenium-75): high patient radiation dose
"Cc1cc([125I])cc(CN(C)CCCN2CCOCC2)c1O [ERC 9, N[3(4-morpholino)propyl]-N-methyl-2-hydroxy-3-methyl-5-iodobenzylamine]",0.40 ± 0.10,0.61 ± 0.05,0.66 ± 0.14,2.02 ± 0.67,2.54 ± 0.34,,2.08 ± 0.90 percent administered dose per organ,4.52 ± 0.75 percent administered dose per organ,4.79 ± 0.70 percent administered dose per organ,6.60 ± 1.84 percent administered dose per organ,3.30 ± 0.53 percent administered dose per organ,,,"mean pancreas/liver ratio compared with HIPDM ([1]; at all time intervals): greater than that for HIPDM; visualization of the pancreas ([5]; 24 hours after injection): less than optimal although still present; quality of pancreatic images ([5]; FIGS. 2 and 3, human volunteers): High quality pancreatic images; time at which uptake of the radiotracer was seen [5, 10]: ≤ 30 min; time of optimum pancreatic uptake and pancreas/liver ratio [5, 10]: 3 to 4 h; accumulation of radiolabel in pancreas [5, 11]: high degree of accumulation of radiolabel in normal human pancreas; discrimination of pancreas from other abdominal organs [5, 11]: good discrimination of pancreas from other abdominal organs; histological examination of various organs and tissues (Toxicity in mice; [12]): no changes that could be attributed to chemical toxicity; immediate or delayed toxicity (Toxicity in mice; [12]): no indication of immediate or delayed toxicity; chemical toxicity (Toxicity in mice; animal studies): low chemical toxicity; human radiation dose to the pancreas [6]: approximately 15.5 mGy per 111 MBq"
"Cc1cc([125I])cc(CN(C)CCCN2CCCCC2)c1O [ERC 90, N[3(1-piperidino)propyl]-N-methyl-2-hydroxy-3-methyl-5-iodobenzylamine]",0.22 ± 0.04,0.50 ± 0.11,0.80 ± 0.18,2.12 ± 0.35,6.70 ± 1.42,higher pancreas uptakes than did HIPDM,1.32 ± 0.34 percent administered dose per,2.73 ± 0.59 percent administered dose per,3.62 ± 0.84 percent administered dose per,5.35 ± 0.88 percent administered dose per,5.59 ± 0.60 percent administered dose per,significantly higher,lower,
